# pIC50: −log10 of the molar value.
# Experiments:
# [1] = tested on: OVCAR3 p-RB; assay: pRB ICW Assay in OVCAR3 Cells; format: cell-based; conditions: Homo sapiens, OVCAR-3, incubated with compound for 2 hours
# Procedure, shortened: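 OVCAR3 cells were treated 2 h at 37° C. with a 9-point half-log compound series, duplicate wells, with 10 μM reference compound as maximum inhibition. Fixed, permeabilized cells were stained with anti-phospho-RB plus DRAQ5 and imaged at 700/800 nm (In-Cell Western).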
# [2] = biological target: T1, CDK4/Cyclin D1 (Homo sapiens, UniProt P11802); assay: CDK4/CyclinD1 Enzymatic Activity Assay (TR-FRET); format: biochemical; conditions: ATP 2 mM final, read-out: CDK4_D1 IC50
# T1 construct: purchased ProQinase; host or cells: insect cell
# T1 sequence (P11802 whole entry): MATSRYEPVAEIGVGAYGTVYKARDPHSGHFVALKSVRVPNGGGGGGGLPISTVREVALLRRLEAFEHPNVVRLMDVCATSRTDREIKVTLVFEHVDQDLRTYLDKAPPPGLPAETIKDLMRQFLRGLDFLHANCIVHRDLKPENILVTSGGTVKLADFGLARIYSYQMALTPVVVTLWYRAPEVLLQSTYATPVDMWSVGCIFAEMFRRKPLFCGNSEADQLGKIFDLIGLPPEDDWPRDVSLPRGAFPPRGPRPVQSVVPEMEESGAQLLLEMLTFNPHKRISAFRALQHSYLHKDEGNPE
# T1 sequence (P24385 whole entry partner): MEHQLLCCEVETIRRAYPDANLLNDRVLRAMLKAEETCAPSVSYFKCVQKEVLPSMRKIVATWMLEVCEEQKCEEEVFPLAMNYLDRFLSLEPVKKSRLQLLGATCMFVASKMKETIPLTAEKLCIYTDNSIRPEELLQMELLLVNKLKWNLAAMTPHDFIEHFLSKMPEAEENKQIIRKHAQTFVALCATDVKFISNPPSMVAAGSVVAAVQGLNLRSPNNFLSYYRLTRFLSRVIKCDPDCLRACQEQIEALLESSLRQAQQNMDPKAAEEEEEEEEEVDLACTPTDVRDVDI
# Procedure, shortened: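 Insect-cell-expressed CDK4/Cyclin D1 (1 nM) with ULight-4E-BP1 (100 nM) and 2 mM ATP in HEPES pH 7.4; 9-dose 3-fold compound series preincubated 20 min, reaction started with 10 mM MgCl2, 45 min at 37° C. Europium anti-P-4E-BP1 TR-FRET read; IC50 from 4-parameter Hill fit.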
# [3] = biological target: T2, CDK2/Cyclin E2 (Homo sapiens, UniProt P24941); assay: CDK2/CyclinE2 Enzymatic Activity Assay (TR-FRET); format: biochemical; conditions: ATP 1 mM final, read-out: CDK2_E1 IC50
# T2 construct: Recombinant protein complex CDK2/Cyclin E2, expressed from insect cell, was purchased from ProQinase
# Procedure, shortened: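 Recombinant insect-cell CDK2/Cyclin E2 (1 nM) phosphorylated ULight-4E-BP1 (50 nM) with 1 mM ATP in HEPES pH 7.4 buffer, after 20 min compound preincubation; MgCl2 (10 mM) started the 45 min reaction at 37° C. Europium anti-phospho-4E-BP1 TR-FRET read; 9-dose IC50 by 4-parameter fit.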
SMILES,pIC50 [1],pIC50 [2],pIC50 [3]
"COc1cc(-c2nc(NC3CCN(S(=O)(=O)c4cn(C)cn4)CC3)ncc2C(F)(F)F)sc1C [Example 75, 4-(4-methoxy-5-methylthiophen-2-yl)-N-(1-((1-methyl-1H-imidazol-4-yl)sulfonyl)piperidin-4-yl)-5-(trifluoromethyl)pyrimidin-2-amine]",< 6.30,< 6.30,≥ 7.00
"COc1cc(-c2nc(NC3CCN(S(C)(=O)=O)CC3)ncc2C(F)(F)F)sc1C [Example 76, 4-(4-methoxy-5-methylthiophen-2-yl)-N-(1-(methylsulfonyl)piperidin-4-yl)-5-(trifluoromethyl)pyrimidin-2-amine]",< 6.30,6.30 to 7.00,6.30 to 7.00
"Cc1cc(-c2nc(NC3CCN(S(=O)(=O)c4cnn(C)c4)CC3)ncc2C(F)(F)F)sn1 [Example 77, N-(1-((1-methyl-1H-pyrazol-4-yl)sulfonyl)piperidin-4-yl)-4-(3-methylisothiazol-5-yl)-5-(trifluoromethyl)pyrimidin-2-amine]",< 6.30,< 6.30,≥ 7.00
"Cc1cc(-c2nc(NC3CCN(S(C)(=O)=O)CC3)ncc2C(F)(F)F)sn1 [Example 78, 4-(3-methylisothiazol-5-yl)-N-(1-(methylsulfonyl)piperidin-4-yl)-5-(trifluoromethyl)pyrimidin-2-amine]",< 6.30,< 6.30,6.30 to 7.00
"Cc1sc(-c2nc(NC3CCN(S(=O)(=O)c4cnn(C)c4)CC3)ncc2C(F)(F)F)cc1C(F)F [Example 79, 4-(4-(difluoromethyl)-5-methylthiophen-2-yl)-N-(1-((1-methyl-1H-pyrazol-4-yl)sulfonyl)piperidin-4-yl)-5-(trifluoromethyl)pyrimidin-2-amine]",6.30 to 7.00,≥ 7.00,≥ 7.00
"Cc1sc(-c2nc(NC3CCN(S(C)(=O)=O)CC3)ncc2C(F)(F)F)cc1C(F)F [Example 80, 4-(4-(difluoromethyl)-5-methylthiophen-2-yl)-N-(1-(methylsulfonyl)piperidin-4-yl)-5-(trifluoromethyl)pyrimidin-2-amine]",6.30 to 7.00,≥ 7.00,≥ 7.00
"CC(=O)c1cc(-c2nc(NC3CCN(S(=O)(=O)c4cnn(C)c4)CC3)ncc2C(F)(F)F)sc1C [Example 81, 1-(2-methyl-5-(2-((1-((1-methyl-1H-pyrazol-4-yl)sulfonyl)piperidin-4-yl)amino)-5-(trifluoromethyl)pyrimidin-4-yl)thiophen-3-yl)ethan-1-one]",≥ 7.00,≥ 7.00,≥ 7.00
"COCc1cc(-c2nc(NC3CCN(S(=O)(=O)c4cnn(C)c4)CC3)ncc2C(F)(F)F)sc1C [Example 82, 4-(4-(methoxymethyl)-5-methylthiophen-2-yl)-N-(1-((1-methyl-1H-pyrazol-4-yl)sulfonyl)piperidin-4-yl)-5-(trifluoromethyl)pyrimidin-2-amine]",< 6.30,6.30 to 7.00,≥ 7.00
"Cc1sc(-c2nc(NC3CCN(S(C)(=O)=O)CC3)ncc2C(F)(F)F)cc1C#N [Example 83, 2-methyl-5-(2-((1-(methylsulfonyl)piperidin-4-yl)amino)-5-(trifluoromethyl)pyrimidin-4-yl)thiophene-3-carbonitrile]",6.30 to 7.00,≥ 7.00,≥ 7.00
"CS(=O)(=O)N1CCC(Nc2ncc(C(F)(F)F)c(-c3cc(C(N)=O)ns3)n2)CC1 [Example 84, 5-(2-((1-(methylsulfonyl)piperidin-4-yl)amino)-5-(trifluoromethyl)pyrimidin-4-yl)isothiazole-3-carboxamide]",≥ 7.00,≥ 7.00,≥ 7.00
"Cc1sc(-c2nc(N[C@H]3CCN(S(=O)(=O)c4cnn(C)c4)C[C@H]3C)ncc2C(F)(F)F)cc1C#N [Example 85, 2-methyl-5-(2-(((3R,4S)-3-methyl-1-((1-methyl-1H-pyrazol-4-yl)sulfonyl)piperidin-4-yl)amino)-5-(trifluoromethyl)pyrimidin-4-yl)thiophene-3-carbonitrile]",6.30 to 7.00,6.30 to 7.00,≥ 7.00
"Cc1sc(-c2nc(N[C@H]3CCN(S(=O)(=O)c4c[nH]cn4)C[C@H]3C)ncc2C(F)(F)F)cc1C#N [Example 86, 5-(2-(((3R,4S)-1-((1H-imidazol-4-yl)sulfonyl)-3-methylpiperidin-4-yl)amino)-5-(trifluoromethyl)pyrimidin-4-yl)-2-methylthiophene-3-carbonitrile]",< 6.30,< 6.30,≥ 7.00
"C[C@@H]1CN(S(=O)(=O)c2cnn(CC#N)c2)CC[C@@H]1Nc1ncc(C(F)(F)F)c(-c2cc(C(N)=O)cs2)n1 [Example 87, 5-(2-(((3R,4S)-1-((1-(Cyanomethyl)-1H-pyrazol-4-yl)sulfonyl)-3-methylpiperidin-4-yl)amino)-5-(trifluoromethyl)pyrimidin-4-yl)thiophene-3-carboxamide]",≥ 7.00,≥ 7.00,≥ 7.00

# The next lines start with the values.
pIC50 [1],pIC50 [2],pIC50 [3],SMILES
≥ 7.00,≥ 7.00,≥ 7.00,"Cc1sc(-c2nc(NC3CCN(S(=O)(=O)c4cnn(CC#N)c4)CC3)ncc2C(F)(F)F)cc1C#N [Example 88, 5-(2-((1-((1-(cyanomethyl)-1H-pyrazol-4-yl)sulfonyl)piperidin-4-yl)amino)-5-(trifluoromethyl)pyrimidin-4-yl)-2-methylthiophene-3-carbonitrile]"
≥ 7.00,≥ 7.00,≥ 7.00,"CC(O)c1cnc(-c2nc(NC3CCN(S(=O)(=O)c4cnn(C)c4)CC3)ncc2C(F)(F)F)s1 (stereo not drawn) [Example 89, 1-(2-(2-((1-((1-Methyl-1H-pyrazol-4-yl)sulfonyl)piperidin-4-yl)amino)-5-(trifluoromethyl)pyrimidin-4-yl)thiazol-5-yl)ethan-1-ol]"
≥ 7.00,≥ 7.00,≥ 7.00,"CC(O)c1sc(-c2nc(NC3CCN(S(=O)(=O)c4cnn(C)c4)CC3)ncc2C(F)(F)F)cc1C#N (stereo not drawn) [Example 90, 2-(1-Hydroxyethyl)-5-(2-((1-((1-methyl-1H-pyrazol-4-yl)sulfonyl)piperidin-4-yl)amino)-5-(trifluoromethyl)pyrimidin-4-yl)thiophene-3-carbonitrile]"
6.30 to 7.00,6.30 to 7.00,≥ 7.00,"Cn1cc(S(=O)(=O)N2CCC(Nc3ncc(C(F)(F)F)c(-c4cc(C#N)ns4)n3)CC2)cn1 [Example 91, 5-(2-((1-((1-methyl-1H-pyrazol-4-yl)sulfonyl)piperidin-4-yl)amino)-5-(trifluoromethyl)pyrimidin-4-yl)isothiazole-3-carbonitrile]"
< 6.30,< 6.30,< 6.30,"Cn1cnc(S(=O)(=O)N2CCC(Nc3ncc(C(F)(F)F)c(-c4nc(C(N)=O)cs4)n3)CC2)c1 [Example 92, 2-(2-((1-((1-Methyl-1H-imidazol-4-yl)sulfonyl)piperidin-4-yl)amino)-5-(trifluoromethyl)pyrimidin-4-yl)thiazole-4-carboxamide]"
6.30 to 7.00,6.30 to 7.00,≥ 7.00,"Cc1sc(-c2nc(NC3CCN(S(=O)(=O)c4cnc(N)s4)CC3)ncc2C(F)(F)F)cc1C#N [Example 93, 5-(2-((1-((2-Aminothiazol-5-yl)sulfonyl)piperidin-4-yl)amino)-5-(trifluoromethyl)pyrimidin-4-yl)-2-methylthiophene-3-carbonitrile]"
